According to publication PMC4627284, “High-throughput simultaneous screen and counterscreen identifies homoharringtonine as synthetic lethal with von Hippel-Lindau loss in renal cell carcinoma” (Oncotarget, 2015):

Assays:
[1] = system: VHL-deficient 786-O cells; experiment: High-throughput simultaneous screen and counterscreen, 1:1 mix of EV^GFP and VHL^mCh 786-O cells, fluorescence imaging; assay type: cell-based, human; details: library at 5 μM, 48 hours, in the presence of 2 nM rapamycin
Text: To identify small molecule compounds synthetic lethal with VHL, we carried out an unbiased cell-based screen of a chemical library of ~12,800 compounds using 786-O cells, an extensively studied cell line derived from a VHL-deficient primary human ccRCC [26]. 786-O cells were stably transfected with either an empty vector (EV) control or reconstituted with an HA-tagged VHL cDNA. […] To distinguish between the two otherwise isogenic cell lines, we transduced the VHL-deficient 786-O cells with a histone H2B-GFP reporter and the VHL-reconstituted cells with an H2B-mCherry reporter. The histone proteins drive the fluorochrome to nuclei facilitating cell identification and segmentation algorithms (Figure 1A and 1B). […]
Figure 1 Screening strategy to identify compounds that are synthetic lethal with VHL A. Schematic diagram of a ~12,800 chemical library synthetic lethal screen. […] Fluorescence imaging (using the BD Pathway 855 imager) was used to identify compounds preferentially depleting VHL-deficient/GFP-positive cells after cells were segmented. B. Left panel: Representative image of fluorescence signal from Hoescht-labeled 786-O cells. Right panel: overlay of GFP fluorescence signal (green; from 786-O EV^GFP cells) and mCherry fluorescence nuclear signal (red; VHL^mCh cells). […] Toxicity was determined as ≤100 VHL^mCh cells per field. […]

[2] = system: VHL-deficient 786-O cells; experiment: Cell death by trypan blue exclusion assay; assay type: cell-based, human; details: 36 hours
Procedure: (§1) Figure 2 Homoharringtonine (HHT) preferentially induces cell death in VHL-deficient 786-O cells A. 786-O cells with VHL mutation (green) or with VHL-reconstituted (red) were treated with different concentrations of HHT (0, 25, 50, or 100 nM) for 0, 6, 12, 24, 36, or 48 hours, and cell death was measured by trypan blue exclusion assay (n = 3 for each concentration and time point; *p < 0.05, **p < 0.001, ***p < 0.0001 between 786-O EV cells and 786-O with VHL reconstituted at the same concentration and time point). B. Western blot analysis of 786-O EV^GFP (EV) or VHL^mCh (VHL) cells treated with 100 nM HHT for 0, 3, 6, 12, or 24 hours. Blots were probed for Bcl-xL and Caspase 9, and α-Tubulin as loading control. Arrow indicates the cleaved Caspase 9 product.

[3] = system: VHL-reconstituted 786-O cells; experiment: Cell death by trypan blue exclusion assay; assay type: cell-based, human; details: 36 hours
Procedure: as §1

[4] = system: XP26 tumorgraft line; experiment: ccRCC tumorgraft model, line XP26; assay type: in vivo, NOD/SCID mice; details: 0.7 mg/kg by gavage twice daily
Procedure: (§2) We selected 6 independently-derived ccRCC tumorgraft lines that were confirmed to have VHL mutation. The mice (3-5 mice per tumorgraft line) were treated with either HHT (0.7 mg/kg), vehicle (as a negative control), or rapamycin (0.5 mg/kg; as a positive control). In total, 65 tumorgraft bearing mice were evaluated for these experiments in time courses lasting ~28 days, with tumor growth measured every 3 or 4 days.
(§3) Figure 3 HHT inhibits tumor growth in a ccRCC tumorgraft model A-F, Tumorgraft lines were treated with vehicle control, HHT (0.7 mg/kg), rapamycin (0.5 mg/kg), (or the combination, where indicated) and tumor growth was measured on the indicated days. Day 0 represents the first day of treatment.
(§4) Tumorgrafts were generated and propagated as described previously, with tumor samples implanted subcutaneously into the flank of the mouse for drug trials. Briefly, 4- to 8-week-old NOD/SCID mice were anesthetized with isoflurane and implanted subcutaneously with 64 mm^3 tumor fragments (cohorts 2-20). Once tumors reached an average of at least ~250 mm^3, drug treatment was begun. […] Tumor size (volume) was measured twice weekly and was obtained by multiplying tumor length, width, and depth using calipers. To assess toxicity, mouse weight was monitored once weekly.

[5] = system: XP144 tumorgraft line; experiment: ccRCC tumorgraft model, line XP144; assay type: in vivo, NOD/SCID mice; details: 0.7 mg/kg by gavage twice daily
Procedure: as §2, §3, §4

[6] = cited from earlier work
[7] = system: advanced ccRCC; design: method as in PMID 9157078; details: 14 patients with advanced ccRCC, 1996; cited from earlier work
[8] = design: method as in PMID 3598625; details: cited from earlier work

Structure (SMILES): COC(=O)C[C@](O)(CCCC(C)(C)O)C(=O)O[C@@H]1C(OC)=C[C@]23CCCN2CCc2cc4c(cc2[C@H]13)OCO4 [HHT, homoharringtonine]
- synthetic lethality with VHL in the screen [1]: synthetic lethal compound effective against VHL-deficient ccRCC cells
- VHL-deficient cells killed ([2]; 50 nM): 30-40%
- dead VHL-deficient cells ([2]; 100 nM): 50-60%
- VHL-reconstituted cells dead ([3]; 50 nM): < 10%
- dead VHL-reconstituted cells ([3]; 100 nM): less than 25%
- tumor weight smaller than vehicle-treated [4]: 56%
- tumor growth inhibition (tumor volume) vs vehicle ([4]; ~28 days): 63.7%
- tumor weight smaller than vehicle-treated [5]: 32%
- tumor growth inhibition (tumor volume) vs vehicle ([5]; ~28 days): 43.0%
- half-life in humans ([6]; dosed subcutaneously): 7 h
- plasma concentration reached in patients ([6]; treatment of CML): ~ 50 nM
- outcome of phase II trial [7]: halted due to toxicity
- blood-brain barrier penetration [8]: penetrates the blood-brain barrier
